Data taken from ChEMBL document CHEMBL1130842, “Synthesis and in vitro cytotoxicity of lipophilic platinum(II) complexes” (Bioorg Med Chem Lett, 1998).
Converted amounts (≈) assume the structure as drawn.

Legend:
Format in all cases: functional, cell-based
M96 = assay: Cytotoxicity was evaluated against melanoma M96 cell-line by MTT assay; conditions: Homo sapiens
Lung NSCLC-N6 cell-line = assay: Cytotoxicity was evaluated against lung NSCLC-N6 cell-line by MTT assay; conditions: Homo sapiens
P388 = assay: Cytotoxicity was evaluated against leukemia P388 cell-line by MTT assay; conditions: Mus musculus
E39 = assay: Cytotoxicity was evaluated against renal E39 cell-line by MTT assay; conditions: Homo sapiens

Work on `CCCCCCCCCCCCCCC(N)CN` (centres undefined) yielded an IC50 (M96) of 7.8 µg/mL (≈ 30.4 µM), an IC50 (Lung NSCLC-N6 cell-line) of 1.1 µg/mL (≈ 4.29 µM) and an IC50 (P388) of 0.1 µg/mL (≈ 0.39 µM). The IC50 (E39) was 5.3 µg/mL (≈ 20.7 µM).
